# Paper PMC7053488 (Cell, 2019)
# Legend:
# [1] = target: rat P2X7 receptor, rP2X7-ΔBallast (Rattus norvegicus, UniProt Q64663)
# [2] = target: T1, rat P2X7 receptor (rP2X7) (Rattus norvegicus, UniProt Q64663); assay: cryo-EM structure; assay type: cell-based
# T1 sequence (Q64663 1-595): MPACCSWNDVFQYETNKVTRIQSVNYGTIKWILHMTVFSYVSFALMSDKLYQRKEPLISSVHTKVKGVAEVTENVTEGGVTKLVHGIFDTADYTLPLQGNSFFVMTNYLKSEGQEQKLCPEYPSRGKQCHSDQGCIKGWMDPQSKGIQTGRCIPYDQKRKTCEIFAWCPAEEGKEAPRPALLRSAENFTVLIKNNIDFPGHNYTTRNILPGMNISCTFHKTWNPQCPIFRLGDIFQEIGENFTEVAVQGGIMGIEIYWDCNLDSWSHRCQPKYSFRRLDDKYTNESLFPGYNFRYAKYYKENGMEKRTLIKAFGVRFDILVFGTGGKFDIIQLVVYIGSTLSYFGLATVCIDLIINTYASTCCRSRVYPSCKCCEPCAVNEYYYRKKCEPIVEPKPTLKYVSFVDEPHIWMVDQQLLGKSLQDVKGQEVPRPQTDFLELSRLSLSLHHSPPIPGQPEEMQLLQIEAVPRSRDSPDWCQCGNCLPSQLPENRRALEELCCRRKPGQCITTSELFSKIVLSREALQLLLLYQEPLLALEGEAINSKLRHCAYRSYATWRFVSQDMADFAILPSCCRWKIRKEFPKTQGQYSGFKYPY
# [3] = target: T1, rat P2X7 receptor (rP2X7); assay: SPA competition with 3H-GDP; assay type: binding
# [4] = target: T1, rat P2X7 receptor (rP2X7); assay: cryo-EM structure; assay type: binding
Ki [3] [µM],SMILES,further results
–,Nc1ncnc2c1ncn2[C@@H]1O[C@H](COP(=O)(O)OP(=O)(O)OP(=O)(O)O)[C@@H](O)[C@H]1O [ATP],EC50 [1]: 52 ± 11 µM; EC50 [2]: 42 ± 3 µM
130 ± 3,Nc1ccn([C@@H]2O[C@H](COP(=O)(O)OP(=O)(O)OP(=O)(O)O)[C@@H](O)[C@H]2O)c(=O)n1 [CTP],–
–,Nc1nc2c(ncn2[C@@H]2O[C@H](COP(=O)(O)OP(=O)(O)O)[C@@H](O)[C@H]2O)c(=O)[nH]1 [GDP],Kd [4]: 0.04 ± 0.01 µM
0.15 ± 0.015,Nc1nc2c(ncn2[C@@H]2O[C@H](COP(=O)(O)OP(=O)(O)OP(=O)(O)O)[C@@H](O)[C@H]2O)c(=O)[nH]1 [GTP],–
60 ± 10,O=c1ccn([C@@H]2O[C@H](COP(=O)(O)OP(=O)(O)OP(=O)(O)O)[C@@H](O)[C@H]2O)c(=O)[nH]1 [UTP],–

SMILES,Ki [3] [µM],further results
Nc1nc2c(ncn2[C@@H]2O[C@H](COP(=O)(O)OP(=O)(O)OP(O)(O)=S)[C@@H](O)[C@H]2O)c(=O)[nH]1 [GTP-γ-S],0.1 ± 0.01,–
